What was measured:
[1] = pH and solubility of solutions, suspensions and formulae; type: physicochemical; conditions: 36 mM (zinc acetate and zinc carbonate also 72 mM)
Staph. epidermidis = assay: Arginolysis: pH during incubation with arginine; type: cell-based, Staphylococcus epidermidis; conditions: 6.0 mM arginine
Protocol: (§1) Each microorganism was recovered from its frozen state at −70° C. and grown at 37° C. in 10 ml of appropriate and respective culture media for a period between 24 and 48 hours (see Table 1). Incubations were carried out to middle and late exponential stages of bacterial growth under the incubation conditions indicated in Table 1. A 1.5 ml inoculum was transferred therefrom to polypropylene bottles containing 150 ml of the initial growth medium. This was then incubated at 37° C. for 24 to 48 hours. Bacteria were harvested by centrifugation (DuPone, Sorvall, Newtown, Conn.) at 10,000 g and 4° C. for 20 min. The volume of bacterial pellet obtained was between about 2.5 and 3.5 ml. The sediment was then washed with sterile distilled water to remove residual growth medium. This was done by centrifuging the bacterial sediment three times at 1,740 g for 15 min at 4° C. […]

[2] = test system: pure cultures of microorganisms resident on human axillary skin; conditions: 6.0 mM arginine; Staph. epidermidis, Staph. haemolyticus and P. avidum
Protocol: Pure cultures of the numerically most prominent microorganisms normally resident on human axillary skin (see Table 1) were surveyed for their effects on (i) pH, (ii) Eh, (iii) ability to generate malodor and (iv) ability to generate hydrogen peroxide. Four hour incubation experiments were conducted, in which each of a wide range of carbohydrate and amino acid substrates (see Table 1) were surveyed for malodor production and related changes in pH and Eh thereto.
Each microorganism was recovered from its frozen state at −70° C. and grown at 37° C. in 10 ml of appropriate and respective culture media for a period between 24 and 48 hours (see Table 1). Incubations were carried out to middle and late exponential stages of bacterial growth under the incubation conditions indicated in Table 1. A 1.5 ml inoculum was transferred therefrom to polypropylene bottles containing 150 ml of the initial growth medium. This was then incubated at 37° C. for 24 to 48 hours. Bacteria were harvested by centrifugation (DuPone, Sorvall, Newtown, Conn.) at 10,000 g and 4° C. for 20 min. […] The sediment was then washed with sterile distilled water to remove residual growth medium. This was done by centrifuging the bacterial sediment three times at 1,740 g for 15 min at 4° C.
Each pure culture was pre-incubated at 37° C. at pH 7.0 to exhaust or reduce any stored carbohydrate and other carbon/energy sources acquired during growth in culture.
Both of these electrodes were connected to a second pH meter (pH M26 Radiometer Copenhagen NV, Denmark) and used here as a millivoltmeter. For the Eh measurements, when the Eh electrode was immersed in an incubation mixture, each Eh reading was recorded after allowing several seconds for each reading to stabilize. The Eh value was related to that of the hydrogen electrode by adding to each reading the difference between the E0 value for the Red Rod reference element-mercury and hydrogen electrodes—i.e. 270 my at 25° C.
At each time point, the odor was determined organoleptically by immersing a solid glass rod into each incubation mixture, stirring gently 3 times and then removing and carefully smelling the rod after 5 seconds. The intensity of the odor was assessed on a 0 to 4 numerical scale (0—no odor, 1—mild odor, 2—moderate odor, 3—strong odor, and 4—very strong odor).

P. avidum = assay: Arginolysis: pH during incubation with arginine; type: cell-based, Propionibacterium avidum; conditions: 6.0 mM arginine
Protocol: as §1

[3] = test system: C. striatum, Staph. epidermidis or a 1:1 mixture thereof; conditions: zinc acetate, CIL and either arginine or arginine bicarbonate, pH 4.0 to 8.0, 4 hours, no phenylalanine
Description: The pH of the medium with each of the different zinc salts needed some adjustment, which was done with 1 M HCl or 1 M NaOH depending upon the pH of the stock solutions of each zinc salt employed.

Staph. haemolyticus = assay: Arginolysis: pH during incubation with arginine; type: cell-based, Staphylococcus haemolyticus; conditions: 6.0 mM arginine, 4 hours
Protocol: as §1

Compound	pH of stock solution in de-ionized water [1]	pH of the incubation mixture (Staph. epidermidis; end of the 4 hours of incubation)	pH of the incubation mixture (Staph. epidermidis; start pH 7.0, within the first 15 min)	Odor during arginolysis [2]	pH rise above the level with Staph. epidermidis (P. avidum)	Sulfurous odor and Eh [3]	pH reached during arginolysis (Staph. haemolyticus)
[Cl-].[Cl-].[Zn+2] [Zinc chloride]	6.7	–	–	–	–	–	–
N=C(N)NCCC[C@H](N)C(=O)O [arginine]	–	7.7	7.4	No odor of significance	about 0.3 pH units	No sulfurous odor nor corresponding decrease in the Eh	8.2

From patent US9555057B2, “Compositions and methods for reducing cutaneous microbiome malodor” (The Research Foundation for The State University of New York, priority 2014, dated 2017)
